Measurements: US10485800B2, “Mixed lineage kinase inhibitors for HIV/AIDS therapies” (UNIVERSITY OF ROCHESTER, priority 2012, dated 2019)

Target: MLK3 (Homo sapiens (Human), UniProt Q16584)
Assay: Radiometric filter plate MLK3 assay
Type: biochemical
Conditions: 2 μM cold ATP (Km), 1 μM inactive MKK7b, twenty minute incubation; read-out: MK3 IC50
Description: After a twenty minute incubation, the reactions were washed through filter plates and read on a scintillation counter. Results are shown in Table 9 below, in which +++ indicates ≤0.1 μM, ++ indicates >0.1 μM and ≤1 μM, and + indicates >1 μM.

MLK3, sequence (Q16584 whole entry): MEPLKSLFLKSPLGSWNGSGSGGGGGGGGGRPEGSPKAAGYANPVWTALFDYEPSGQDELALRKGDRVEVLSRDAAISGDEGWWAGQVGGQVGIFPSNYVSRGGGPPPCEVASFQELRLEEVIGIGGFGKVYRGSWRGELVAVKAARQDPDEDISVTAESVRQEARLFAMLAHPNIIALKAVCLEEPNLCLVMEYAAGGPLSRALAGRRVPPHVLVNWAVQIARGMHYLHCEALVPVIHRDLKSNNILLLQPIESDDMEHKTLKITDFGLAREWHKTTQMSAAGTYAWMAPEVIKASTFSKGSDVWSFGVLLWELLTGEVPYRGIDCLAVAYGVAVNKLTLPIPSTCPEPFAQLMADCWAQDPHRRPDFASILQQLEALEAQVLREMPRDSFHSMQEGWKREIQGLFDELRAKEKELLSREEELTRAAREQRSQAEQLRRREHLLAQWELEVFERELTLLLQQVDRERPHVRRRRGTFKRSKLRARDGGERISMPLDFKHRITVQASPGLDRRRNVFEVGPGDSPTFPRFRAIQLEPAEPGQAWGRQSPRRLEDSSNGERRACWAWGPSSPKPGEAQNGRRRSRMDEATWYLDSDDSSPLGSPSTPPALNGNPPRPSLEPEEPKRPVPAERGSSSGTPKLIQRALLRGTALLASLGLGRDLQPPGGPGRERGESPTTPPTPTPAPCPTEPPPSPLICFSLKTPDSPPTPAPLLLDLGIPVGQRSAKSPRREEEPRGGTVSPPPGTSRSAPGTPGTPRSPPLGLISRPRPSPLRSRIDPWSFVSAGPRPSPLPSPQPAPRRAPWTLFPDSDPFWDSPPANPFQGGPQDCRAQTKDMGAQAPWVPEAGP

**Q.** With `Nc1ncc(-c2cnc3[nH]cc(-c4ccc5[nH]ccc5c4)c3c2)cn1` [Example 9, 5-(3-(1H-indol-5-yl)-1H-pyrrolo[2,3-b]pyridin-5-yl)pyrimidin-2-amine] as the molecule, how does the IC50 read?
**A.** Its IC50 is < 100 nM.

**Q.** For `Nc1ccc(-c2cnc3[nH]cc(-c4ccc5[nH]ccc5c4)c3c2)cn1` [Example 4, 5-(3-(1H-indol-5-yl)-1H-pyrrolo[2,3-b]pyridin-5-yl)pyridin-2-amine], which IC50 is on record?
**A.** Its IC50 is < 100 nM.

**Q.** For `COc1cc(-c2cnc3[nH]cc(-c4ccc(N)nc4)c3c2)cc(OC)c1OC` [Example 18, 5-(5-(3,4,5-trimethoxyphenyl)-1H-pyrrolo[2,3-b]pyridin-3-yl)pyridin-2-amine], which IC50 is on record?
**A.** Its IC50 is < 100 nM.

**Q.** Which IC50 does the source give for `O=c1[nH]c2ncc(-c3ccc(N4CCOCC4)cc3)nc2n1-c1ccc2scnc2c1` [Example 100, 1-(benzo[d]thiazol-5-yl)-6-(4-morpholinophenyl)-1H-imidazo[4,5-b]pyrazin-2(3H)-one] here?
**A.** The IC50 was > 1000 nM.

**Q.** Which IC50 does the source give for `O=c1[nH]c2ncc(-c3cc(F)cc(F)c3)nc2n1-c1ccc2[nH]ccc2c1` [Example 61, 6-(3,5-difluorophenyl)-1-(1H-indol-5-yl)-1H-imidazo[4,5-b]pyrazin-2(3H)-one] here?
**A.** The IC50 was > 1000 nM.

**Q.** For `CS(=O)(=O)N1CCN(Cc2ccc(-c3cnc4[nH]cc(-c5ccc6[nH]ccc6c5)c4c3)cc2)CC1` [Example 200], which IC50 is on record?
**A.** Its IC50 is < 100 nM.

**Q.** Which IC50 does the source give for `COc1cc(-c2cnc3[nH]cc(-c4ccc(N(C)C)nc4)c3c2)cc(OC)c1OC` [Example 19, N,N-dimethyl-5-(5-(3,4,5-trimethoxyphenyl)-1H-pyrrolo[2,3-b]pyridin-3-yl)pyridin-2-amine] here?
**A.** The IC50 was < 100 nM.

**Q.** With `O=c1[nH]c2ncc(-c3ccc(N4CCOCC4)cc3)nc2n1CC1CC1` [Example 86, 1-(cyclopropylmethyl)-6-(4-morpholinophenyl)-1H-imidazo[4,5-b]pyrazin-2(3H)-one] as the molecule, how does the IC50 read?
**A.** The IC50 was > 1000 nM.

**Q.** For `CC(C)C(=O)N1CCN(Cc2ccc(-c3cnc4[nH]cc(-c5ccc6[nH]ccc6c5)c4c3)cc2)CC1` [Example 196], which IC50 is on record?
**A.** Its IC50 is < 100 nM.

**Q.** With `COc1cc(-c2cnc3c(c2)C(CC2CC2)C(=O)N3)cc(OC)c1OC` (centres unmarked) [Example 123, 3-(cyclopropylmethyl)-5-(3,4,5-trimethoxyphenyl)-1H-pyrrolo[2,3-b]pyridin-2(3H)-one] as the molecule, how does the IC50 read?
**A.** Its IC50 is 100 to 1000 nM.

**Q.** For `COc1cc(-c2cc3c(-c4ccc(C(N)=O)cc4)c[nH]c3[n+]([O-])c2)cc(OC)c1OC` [Example 154, 4-[7-oxy-5-(3,4,5-trimethoxy-phenyl)-1H-pyrrolo[2,3-b]pyridin-3-yl]-benzamide], which IC50 is on record?
**A.** The IC50 was 100 to 1000 nM.

**Q.** With `CN1CCN(c2cc(-c3cnc4[nH]cc(-c5ccc6[nH]ccc6c5)c4c3)ccn2)CC1` [Example 7, 3-(1H-indol-5-yl)-5-(2-(4-methylpiperazin-1-yl)pyridin-4-yl)-1H-pyrrolo[2,3-b]pyridine] as the molecule, how does the IC50 read?
**A.** Its IC50 is < 100 nM.

**Q.** Which IC50 does the source give for `COc1cc(-c2cnc3[nH]c(=O)n(-c4ccc5[nH]ccc5c4)c3n2)cc(OC)c1OC` [Example 40, 1-(1H-indol-5-yl)-6-(3,4,5-trimethoxyphenyl)-1H-imidazo[4,5-b]pyrazin-2(3H)-one] here?
**A.** Its IC50 is < 100 nM.

**Q.** Which IC50 does the source give for `COc1ccc(-c2cnc3[nH]cc(-c4ccc5[nH]ccc5c4)c3n2)cc1OC` [Example 37, 2-(3,4-dimethoxyphenyl)-7-(1H-indol-5-yl)-5H-pyrrolo[3,2-b]pyrazine] here?
**A.** Its IC50 is < 100 nM.

**Q.** With `COc1cc(-c2cnc3[nH]c(=O)n(CC4CC4)c3c2)cc(OC)c1OC` [Example 125, 1-(cyclopropylmethyl)-6-(3,4,5-trimethoxyphenyl)-1H-imidazo[4,5-b]pyridin-2(3H)-one] as the molecule, how does the IC50 read?
**A.** Its IC50 is > 1000 nM.

**Q.** For `COc1cc(-c2cnc3[nH]cc(-c4ccc5c(ccn5C)c4)c3c2)cc(OC)c1OC` [Example 24, 3-(1-methyl-1H-indol-5-yl)-5-(3,4,5-trimethoxyphenyl)-1H-pyrrolo[2,3-b]pyridine], which IC50 is on record?
**A.** The IC50 was < 100 nM.

**Q.** With `CN(C)c1ccc(-c2cnc3[nH]cc(-c4ccc(F)c(Cl)c4)c3c2)cn1` [Example 22, 5-(3-(3-chloro-4-fluorophenyl)-1H-pyrrolo[2,3-b]pyridin-5-yl)-N,N-dimethylpyridin-2-amine] as the molecule, how does the IC50 read?
**A.** Its IC50 is > 1000 nM.

**Q.** Which IC50 does the source give for `COc1cc(-c2cnc3[nH]cc(-c4cnc(N)nc4)c3c2)cc(OC)c1OC` [Example 17, 5-(5-(3,4,5-trimethoxyphenyl)-1H-pyrrolo[2,3-b]pyridin-3-yl)pyrimidin-2-amine] here?
**A.** The IC50 was < 100 nM.

**Q.** Which IC50 does the source give for `COc1cc(-c2cnc3[nH]c(=S)n(CC4CC4)c3n2)cc(OC)c1OC` [Example 127, 1-(cyclopropylmethyl)-6-(3,4,5-trimethoxyphenyl)-1H-imidazo[4,5-b]pyrazine-2(3H)-thione] here?
**A.** Its IC50 is > 1000 nM.

**Q.** Which IC50 does the source give for `COc1cc(-c2cnc3[nH]cc(-c4ccc5[nH]ccc5c4)c3c2)ccc1N` [Example 5, 4-(3-(1H-indol-5-yl)-1H-pyrrolo[2,3-b]pyridin-5-yl)-2-methoxyaniline] here?
**A.** The IC50 was < 100 nM.

**Q.** Which IC50 does the source give for `CN1CCN(Cc2ccc(-c3cnc4[nH]cc(-c5ccc6ncccc6c5)c4c3)cc2)CC1` [Example 180] here?
**A.** The IC50 was < 100 nM.

**Q.** For `Cc1cc(C)cc(-c2cnc3[nH]c(=O)n(-c4ccc5[nH]ccc5c4)c3n2)c1` [Example 46, 6-(3,5-dimethylphenyl)-1-(1H-indol-5-yl)-1H-imidazo[4,5-b]pyrazin-2(3H)-one], which IC50 is on record?
**A.** The IC50 was > 1000 nM.

**Q.** Which IC50 does the source give for `COCC(=O)N1CCN(Cc2ccc(-c3cnc4[nH]cc(-c5ccc6[nH]ccc6c5)c4c3)cc2)CC1` [Example 198] here?
**A.** The IC50 was < 100 nM.

**Q.** For `O=c1[nH]c2ncc(-c3ccc(O)cc3)nc2n1CC1CC1` [Example 81, 1-(cyclopropylmethyl)-6-(4-hydroxyphenyl)-1H-imidazo[4,5-b]pyrazin-2(3H)-one], which IC50 is on record?
**A.** Its IC50 is > 1000 nM.

**Q.** Which IC50 does the source give for `O=c1[nH]c2ncc(-c3ccncc3)nc2n1CC1CC1` [Example 82, 1-(cyclopropylmethyl)-6-(pyridin-4-yl)-1H-imidazo[4,5-b]pyrazin-2(3H)-one] here?
**A.** The IC50 was > 1000 nM.

**Q.** With `COc1cc(-c2cnc3[nH]c(=O)n(-c4ccc5[nH]ccc5c4)c3n2)cc(OC)c1O` [Example 62, 6-(4-hydroxy-3,5-dimethoxyphenyl)-1-(1H-indol-5-yl)-1H-imidazo[4,5-b]pyrazin-2(3H)-one] as the molecule, how does the IC50 read?
**A.** The IC50 was < 100 nM.

**Q.** Which IC50 does the source give for `CNC(=O)c1ccc(-c2c[nH]c3ncc(-c4ccc(CN5CCN(C)CC5)cc4)cc23)cc1` [Example 165, N-methyl-4-{5-[4-(4-methyl-piperazin-1-ylmethyl)-phenyl]-1H-pyrrolo[2,3-b]pyridin-3-yl}-benzamide] here?
**A.** The IC50 was < 100 nM.

**Q.** For `COc1cc(-c2cnc3c(c2)C(Cc2cccnc2)C(=O)N3)cc(OC)c1OC` (centres unmarked) [Example 135, 3-pyridin-3-ylmethyl-5-(3,4,5-trimethoxy-phenyl)-1,3-dihydro-pyrrolo[2,3-b]pyridin-2-one], which IC50 is on record?
**A.** Its IC50 is > 1000 nM.

Same assay, conditions: read-out: MK3 IC50

**Q.** With `Cc1cc2cc(-c3c[nH]c4ncc(-c5ccc(CN6CCN(C)CC6)cc5)cc34)ccc2[nH]1` [Example 172] as the molecule, how does the IC50 read?
**A.** The IC50 was 100 to 1000 nM.

**Q.** Which IC50 does the source give for `FC1(F)CCN(Cc2ccc(-c3cnc4[nH]cc(-c5ccc6[nH]ccc6c5)c4c3)cc2)CC1` [Example 185, 5-(4-((4,4-difluoropiperidin-1-yl)methyl)phenyl)-3-(1H-indol-5-yl)-1H-pyrrolo[2,3-b]pyridine] here?
**A.** Its IC50 is 100 to 1000 nM.

**Q.** For `c1cc2cc(-c3c[nH]c4ncc(-c5ccc(CN6CCNCC6)cc5)cc34)ccc2[nH]1` [Example 168, 3-(1H-indol-5-yl)-5-(4-(piperazin-1-ylmethyl)phenyl)-1H-pyrrolo[2,3-b]pyridine], which IC50 is on record?
**A.** Its IC50 is 100 to 1000 nM.

**Q.** With `CNC(=O)c1ccc(-c2c[nH]c3ncc(-c4cc(OC)c(OC)c(OC)c4)cc23)cc1` [Example 164, N-methyl-4-[5-(3,4,5-trimethoxy-phenyl)-1H-pyrrolo[2,3-b]pyridin-3-yl]-benzamide] as the molecule, how does the IC50 read?
**A.** Its IC50 is > 1000 nM.

Test system: not listed separately
Assay: Standard murine pharmacokinetic model (plasma and brain AUC)
Type: in vivo
Conditions: CL57 BL/6 mice, single IV injection 10 mg/kg, brain homogenate
Description: Several compounds disclosed herein were evaluated in a standard murine pharmacokinetic model. […] Three mice in each group were used for blood and brain collection at each time point. […] The brain of each animal was collected after the final blood collection. The whole tissue was harvested, excised and rinsed by saline, dried by filter paper, and then placed into one tube per tissue per animal. All samples were stored at −20° C. until bioanalysis. Compound concentrations in plasma and brain homogenate were determined using a high performance liquid chromatography/mass spectrometry (HPLC/MS/MS) method (Agilent 1100 series HPLC, AB Inc. API4000 triple-quadrupole with an ESI interface and Analyst 1.4 software). Results in the form of area under the time-versus-concentration curve (AUC) are given below in Table 10.

**Q.** Which “AUC Brain” value does the source give for `Nc1ncc(-c2cnc3[nH]cc(-c4ccc5[nH]ccc5c4)c3c2)cn1` [Example 9, 5-(3-(1H-indol-5-yl)-1H-pyrrolo[2,3-b]pyridin-5-yl)pyrimidin-2-amine] here?
**A.** The value was “+ (+ indicates ≥500)”.

**Q.** With `Nc1ccc(-c2cnc3[nH]cc(-c4ccc5[nH]ccc5c4)c3c2)cn1` [Example 4, 5-(3-(1H-indol-5-yl)-1H-pyrrolo[2,3-b]pyridin-5-yl)pyridin-2-amine] as the molecule, how does the “AUC Brain” value read?
**A.** The value was “− (− indicates <500)”.

**Q.** With `COc1cc(-c2cnc3[nH]cc(-c4ccc5[nH]ccc5c4)c3c2)cc(OC)c1OC` [Example 1, 3-(1H-indol-5-yl)-5-(3,4,5-trimethoxyphenyl)-1H-pyrrolo[2,3-b]pyridine] as the molecule, how does the “AUC Brain” value read?
**A.** The value was “+ (+ indicates ≥500)”.

**Q.** Which “AUC Brain” value does the source give for `COc1cc(-c2cnc3[nH]cc(-c4ccc(N)nc4)c3c2)cc(OC)c1OC` [Example 18, 5-(5-(3,4,5-trimethoxyphenyl)-1H-pyrrolo[2,3-b]pyridin-3-yl)pyridin-2-amine] here?
**A.** The value was “− (− indicates <500)”.

**Q.** With `CN1CCN(Cc2ccc(-c3cnc4[nH]cc(-c5ccc6[nH]ccc6c5)c4c3)cc2)CC1` [Example 32, 3-(1H-indol-5-yl)-5-(4-((4-methylpiperazin-1-yl)methyl)phenyl)-1H-pyrrolo[2,3-b]pyridine] as the molecule, how does the “AUC Brain” value read?
**A.** Its value is “+ (+ indicates ≥500)”.

**Q.** For `COc1cc(-c2cnc3[nH]cc(-c4cnc(N)nc4)c3c2)cc(OC)c1OC` [Example 17, 5-(5-(3,4,5-trimethoxyphenyl)-1H-pyrrolo[2,3-b]pyridin-3-yl)pyrimidin-2-amine], which “AUC Brain” value is on record?
**A.** Its value is “− (− indicates <500)”.
